According to ChEMBL document CHEMBL4823300, “Design, synthesis and anticancer activity of sulfenylated imidazo-fused heterocycles” (Bioorg Med Chem Lett, 2021):
Active and inactive are the calls of the source. The calls are words filed in the database; no cut-off is given here.

Key:
[1] = tested on: HEK293; assay: Anticancer activity against human HEK293 cells assessed as growth inhibition incubated for 48 hrs by MTT assay; assay type: cell-based; conditions: HEK293, 48 h
[2] = tested on: HepG2; assay: Induction of apoptosis in human HepG2 cells assessed as early apoptotic cells at 5 uM incubated for 48 hrs by annexin V-FITC/propidium iodide (AV/PI) dual staining assay (reference value: 3.87%); assay type: functional
[3] = tested on: HepG2; assay: Cell cycle arrest in human HepG2 cells assessed as accumulation at G0/G1 phase at 5 uM (reference value: 92.33%); assay type: functional
[4] = tested on: HepG2; assay: Induction of apoptosis in human HepG2 cells assessed as late apoptotic cells at 10 uM incubated for 48 hrs by annexin V-FITC/propidium iodide (AV/PI) dual staining assay (reference value: 4.07%); assay type: functional
[5] = tested on: DU-145; assay: Anticancer activity against human DU-145 cells assessed as growth inhibition incubated for 48 hrs by MTT assay; assay type: functional, cell-based; conditions: DU-145, 48 h
[6] = tested on: HepG2; assay: Induction of apoptosis in human HepG2 cells assessed as early apoptotic cells at 10 uM incubated for 48 hrs by annexin V-FITC/propidium iodide (AV/PI) dual staining assay (reference value: 3.87%); assay type: functional
[7] = tested on: HepG2; assay: Cell cycle arrest in human HepG2 cells assessed as accumulation at G2/M phase at 5 uM (reference value: 3.72%); assay type: functional
[8] = tested on: HepG2; assay: Cell cycle arrest in human HepG2 cells assessed as accumulation at SubG1 phase at 10 uM (reference value: 7.13%); assay type: functional
[9] = tested on: HepG2; assay: Induction of apoptosis in human HepG2 cells assessed as decrease in mitochondrial membrane potential at 5 to 10 uM incubated for 48 hrs by JC-1 staining based assay relative to control; assay type: functional, cell-based; conditions: dose 5-10 µM
[10] = tested on: HepG2; assay: Induction of apoptosis in human HepG2 cells assessed as nuclear condensation at 5 to 10 uM incubated for 48 hrs by Hoechst staining based assay relative to control; assay type: functional, cell-based; conditions: dose 5-10 µM
[11] = tested on: U-87 MG; assay: Anticancer activity against human U-87 MG cells assessed as growth inhibition incubated for 48 hrs by MTT assay; assay type: functional, cell-based, U-87MG ATCC
[12] = tested on: HeLa; assay: Anticancer activity against human HeLa cells assessed as growth inhibition incubated for 48 hrs by MTT assay; assay type: functional, cell-based
[13] = tested on: HepG2; assay: Cell cycle arrest in human HepG2 cells assessed as accumulation at G0/G1 phase at 10 uM (reference value: 92.33%); assay type: functional
[14] = tested on: HepG2; assay: Induction of apoptosis in human HepG2 cells assessed as necrotic cells at 5 uM incubated for 48 hrs by annexin V-FITC/propidium iodide (AV/PI) dual staining assay (reference value: 1.06%); assay type: functional
[15] = tested on: SK-MEL-28; assay: Anticancer activity against human SK-MEL-28 cells assessed as growth inhibition incubated for 48 hrs by MTT assay; assay type: functional, cell-based; conditions: SK-MEL-28, 48 h
[16] = tested on: HepG2; assay: Induction of apoptosis in human HepG2 cells assessed as late apoptotic cells at 5 uM incubated for 48 hrs by annexin V-FITC/propidium iodide (AV/PI) dual staining assay (reference value: 4.07%); assay type: functional
[17] = tested on: HepG2; assay: Cell cycle arrest in human HepG2 cells assessed as accumulation at G2/M phase at 10 uM (reference value: 3.72%); assay type: functional
[18] = tested on: HepG2; assay: Induction of apoptosis in human HepG2 cells assessed as live cells at 10 uM incubated for 48 hrs by annexin V-FITC/propidium iodide (AV/PI) dual staining assay (reference value: 91.01%); assay type: functional
[19] = tested on: HepG2; assay: Anticancer activity against human HepG2 cells assessed as growth inhibition incubated for 48 hrs by MTT assay; assay type: functional, cell-based; conditions: HepG2, 48 h
[20] = tested on: NIH3T3; assay: Anticancer activity against mouse NIH3T3 cells assessed as growth inhibition incubated for 48 hrs by MTT assay; assay type: cell-based; conditions: NIH3T3, 48 h
[21] = tested on: MDA-MB-231; assay: Anticancer activity against human MDA-MB-231 cells assessed as growth inhibition incubated for 48 hrs by MTT assay; assay type: functional, cell-based; conditions: MDA-MB-231, 48 h
[22] = tested on: HepG2; assay: Cell cycle arrest in human HepG2 cells assessed as accumulation at SubG1 phase at 5 uM (reference value: 7.13%); assay type: functional
[23] = tested on: HepG2; assay: Induction of apoptosis in human HepG2 cells assessed as necrotic cells at 10 uM incubated for 48 hrs by annexin V-FITC/propidium iodide (AV/PI) dual staining assay (reference value: 1.06%); assay type: functional
[24] = tested on: A549; assay: Anticancer activity against human A549 cells assessed as growth inhibition incubated for 48 hrs by MTT assay; assay type: functional, cell-based; conditions: A549, 48 h
[25] = tested on: HepG2; assay: Cell cycle arrest in human HepG2 cells assessed as accumulation at S phase at 5 uM (reference value: 4.66%); assay type: functional
[26] = tested on: HepG2; assay: Cell cycle arrest in human HepG2 cells assessed as accumulation at S phase at 10 uM (reference value: 4.66%); assay type: functional
[27] = tested on: HepG2; assay: Induction of apoptosis in human HepG2 cells assessed as live cells at 5 uM incubated for 48 hrs by annexin V-FITC/propidium iodide (AV/PI) dual staining assay (reference value: 91.01%); assay type: functional

| Compound | IC50 [1] [µM] | Activity [2] [%] | Activity [3] [%] | Activity [4] [%] | IC50 [5] [µM] | Activity [6] [%] | Activity [7] [%] | Activity [8] [%] | Activity [9] | Activity [10] | IC50 [11] [µM] | IC50 [12] [µM] | Activity [13] [%] | Activity [14] [%] | IC50 [15] [µM] | Activity [16] [%] | Activity [17] [%] | Activity [18] [%] | IC50 [19] [µM] | IC50 [20] [µM] | further results |
| --- | --- | --- | --- | --- | --- | --- | --- | --- | --- | --- | --- | --- | --- | --- | --- | --- | --- | --- | --- | --- | --- |
| CSc1ccc(-c2nc3ccccn3c2Sc2ccccc2)cc1 | > 100 | 18.94 | 83.03 | 23.93 | 52.1 | 27.63 | 10.85 | 1.57 | Active | Active | 26.9 | 30 | 63.48 | 0.28 | 67.7 | 15.17 | 34.97 | 48.22 | 7.6 | > 100 | IC50 [21]: 23.5 µM; Activity [22]: 11.43%; Activity [23]: 0.22%; IC50 [24]: 13.6 µM; Activity [25]: 0.56%; Activity [26]: 1.07%; Activity [27]: 65.61% |
| c1ccc(Sc2c(-c3cccc4ccccc34)nc3ccccn23)cc1 | > 100 | 10.32 | 86.33 | 18.94 | 60.6 | 25.45 | 7.29 | 8.52 | Active | Active | > 100 | 33.1 | 70.35 | 0.26 | > 100 | 11.9 | 25.53 | 55.27 | 9.9 | > 100 | IC50 [21]: 69.3 µM; Activity [22]: 3.7%; Activity [23]: 0.34%; IC50 [24]: 17.9 µM; Activity [25]: 2.54%; Activity [26]: 0.36%; Activity [27]: 77.51% |
| C(=C\c1nc2ccccn2c1Sc1ccccc1)/c1ccccc1 | > 100 | 16.1 | 86.58 | 22.5 | 22 | 25.51 | 9.73 | 8.65 | Active | Active | 59.2 | 35.5 | 65.4 | 0.34 | 65.4 | 11.31 | 30.69 | 51.78 | 8.8 | > 100 | IC50 [21]: 25.3 µM; Activity [22]: 7.64%; Activity [23]: 0.2%; IC50 [24]: 16.3 µM; Activity [25]: 0.52%; Activity [26]: 0.69%; Activity [27]: 72.25% |
